Experimental data as given in patent US20060004029A1, “Nitrogen-containing aromatic derivatives” (priority 2003, published 2006).

Molecular target: T1, FGFR1 (Homo sapiens, UniProt P11362)
T1 construct: made in house; host or cells: Sf9 insect cells, baculovirus (pFastBacHis), by the same method as VEGFR2
Assay: Inhibition against receptor tyrosine kinase activity (HTRF), FGFR1
Assay type: biochemical
Conditions: His6-FGFR1 cytoplasmic domain, biotin-poly(GT), HTRF; read-out: FGFR1 kinase IC50
Excerpt: This assay is used to determine inhibition of a test substance on tyrosine kinase activity. DNA coding for the cytoplasmic domain of VEGFR2 is obtained by total cDNA synthesis (Edwards M, International Biotechnology Lab 5(3), 19-25, 1987) or by cloning. Expression in an appropriate expression system can produce a polypeptide with tyrosine kinase activity. […] For VEGFR2 (GenBank Accession No. L04947), the 1.7 kb DNA fragment described by Terman et al. (Oncogene, 6(9), 1677-1683, 1991), coding for the cytoplasmic domain, beginning with lysine 791 and including the termination codon, was isolated from a human placental cDNA library (purchased from Clontech Laboratories, Inc.) and cloned in a Baculovirus expression vector (pFastBacHis, purchased from GIBCO BRL). The recombinant construct was transfected into insect cells (Spondoptea frugiperda9 (Sf9)) to prepare a recombinant Baculovirus. (Instructions for preparation and use of recombinant Baculovirus may be found in standard texts, such as “Bac-To-Bac Baculovirus Expression System” (GIBCO BRL).) The cytoplasmic fragment starting from lysine 398 (FGFR1, GenBank Accession No. X52833), the cytoplasmic fragment starting from lysine 558 (PDGFRβ, GenBank Accession No. M21616) or the cytoplasmic fragment starting from lysine 974 (HGFR, GenBank Accession No. J02958) may be cloned and expressed by the same method for use in assays for other tyrosine kinases. EGFR was purchased from Sigma Co. (Product No. E-2645).
For expression of the VEGFR2 tyrosine kinase, Sf9 cells were infected with the VEGFR2 recombinant virus and collected after 48 hours. The collected cells were rinsed with ice-cooled phosphate buffered saline (PBS) and then resuspended using 20 ml of ice-cooled Lysis Buffer (50 mM Tris-HCl (pH 8.5), 5 mM 2-mercaptoethanol, 100 mM KCl, 1 mM phenylmethylsulfonyl fluoride, 1% (v/v) NP-40) per 1.5×10^8 cells. The suspension was centrifuged at 12,000 rpm for 30 minutes at 4° C. and the supernatant was obtained. The supernatant was added to a Ni-NTA agarose column (3 ml, purchased from Qiagen) equilibrated with Buffer A {20 mM Tris-HCl (pH 8.5), 5 mM 2-mercaptoethanol, 500 mM KCl, 20 mM imidazole, 10% (v/v) glycerol}. The column was washed with 30 ml of Buffer A, and then with 6 ml of Buffer B {20 mM Tris-HCl (pH 8.5), 5 mM 2-mercaptoethanol, 1M KCl, 10% (v/v) glycerol}, and finally with 6 ml of Buffer A. After washing, it was eluted with 6 ml of Buffer C {20 mM Tris-HCl (pH 8.5), 5 mM 2-mercaptoethanol, 100 mM KCl, 100 mM imidazole, 10% (v/v) glycerol}. The eluate was placed on a dialysis membrane (purchased from Spectrum Laboratories) and dialyzed with a dialysis buffer {20 mM Tris-HCl (pH 7.5), 10% (v/v) glycerol, 1 mM dithiothreitol, 0.1 mM Na3VO4, 0.1 mM EGTA}. After dialysis, it was supplied for SDS-electrophoresis, and the recombinant protein (His6-VEGFR2, cytoplasmic domain of VEGFR2 fused with 6 histidine residues at the N-terminus) detected at a molecular weight of approximately 100 kDa with Coumassie Brilliant Blue staining was assayed using BSA (bovine serum albumin, purchased from Sigma Co.) as the standard substance, and stored at −80° C. until use. Using the same method for the cytoplasmic domains of FGFR1, PDGFRβ and HGFR yielded respective recombinant proteins fused with 6 histidine residues at the N-terminal (His6-FGFR1, His6-PDGFRβ or His6-HGFR).
The tyrosine kinase reaction was conducted as follows. In the case of VEGFR2, for example, 10 μl of a kinase reaction solution {200 mM Hepes (pH 7.4), 80 mM MgCl2, 16 mM MnCl2, 2 mM Na3VO4}, 250 ng of biotin-bound poly(Glu4:Tyr1) (biotin-poly(GT), purchased from CIS Diagnostics Co.) (6 μl of a 15-fold dilution with distilled water), 15 ng of His6-VEGFR2 (10 μl of a 240-fold dilution with 0.4% BSA solution) and the test substance dissolved in dimethyl sulfoxide (4 μl of a 100-fold dilution with 0.1% BSA solution) were added into each well of a 96-well round-bottom plate (NUNC Co., Product No. 163320), to a total of 30 μl. […]

T1 sequence (P11362 398-822 limits assumed): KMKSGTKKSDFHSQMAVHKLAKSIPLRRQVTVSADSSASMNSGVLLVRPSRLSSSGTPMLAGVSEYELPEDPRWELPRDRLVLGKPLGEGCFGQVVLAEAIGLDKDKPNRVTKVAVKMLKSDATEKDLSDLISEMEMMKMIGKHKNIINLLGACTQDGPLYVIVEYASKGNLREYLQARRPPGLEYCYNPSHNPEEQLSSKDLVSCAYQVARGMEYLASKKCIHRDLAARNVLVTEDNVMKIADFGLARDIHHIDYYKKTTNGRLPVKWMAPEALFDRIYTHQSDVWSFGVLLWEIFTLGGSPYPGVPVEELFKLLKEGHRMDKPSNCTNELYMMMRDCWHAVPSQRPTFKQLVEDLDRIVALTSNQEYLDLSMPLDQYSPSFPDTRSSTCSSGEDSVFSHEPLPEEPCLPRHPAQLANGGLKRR

IC50 [nM]	Compound
6.3	CNC(=O)n1ccc2cc(Oc3ccnc(NC(=O)N4CCC(O)CC4)c3)ccc21 [Example 39, N1-Methyl-5-(2-((4-hydroxypiperidino)carbonyl)amino-4-pyridyl)oxy-1H-1-indolecarboxamide]
3.2	CNC(=O)n1ccc2cc(Oc3ccnc(NC(=O)N4CCC(C)(O)CC4)c3)ccc21 [Example 41, 5-(2-(((4-Hydroxy-4-methylpiperidin-1-yl)carbonyl)amino)pyridin-4-yloxy)-1H-1-indole-1-carboxylic acid methylamide]
12	CNC(=O)n1ccc2cc(Oc3ccnc(NC(=O)N4CCC(N5CCCC5)CC4)c3)ccc21 [Example 46, N1-Methyl-5-(2-(((4-(pyrrolidin-1-yl)piperidin-1-yl)carbonyl)amino)pyridin-4-yloxy)-1H-1-indolecarboxamide]
21	CNC(=O)n1ccc2cc(Oc3ccnc(NC(=O)N4CCC(N5CCCCC5)CC4)c3)ccc21 [Example 47, N1-Methyl-5-(2-(((4-(piperidin-1-yl)piperidin-1-yl)carbonyl)amino)pyridin-4-yloxy)-1H-1-indolecarboxamide]
2.1	CNC(=O)n1ccc2cc(Oc3ccnc(NC(=O)N4CCOCC4)c3)ccc21 [Example 53, N4-(4-(1-(Methylamino)carbonyl-1H-5-indolyl)oxy-2-pyridyl)-4-morpholinecarboxamide]
